Values of other authors in patent US8541371B2, “Treatment of conditions related to cecal ligation shock” (The Regents of The University of California, priority 2009, dated 2013).

System: shock
Details: shock patients, approved treatment

Substance: drotrecogin alfa (activated) [XIGRIS]
- survival benefit: minor but confirmed survival benefit
